Source: patent US20100099725A1, “PEROXISOME PROLIFERATOR ACTIVATED RECEPTOR MODULATORS” (priority 2007, published 2010)

Tests used:
[1] = molecular target: T1, PXR (human SXR ligand binding domain) (Homo sapiens, UniProt O75469); assay: PXR Assay: GAL4PXR/GAL4 response element reporter assay in HuH7 cells; assay type: cell-based; details: 24 h, versus maximum stimulation with rifampicin
T1 construct: expressed in transfected cells; host or cells: HuH7 (human liver) cells
T1 sequence (O75469 146-433 limits assumed): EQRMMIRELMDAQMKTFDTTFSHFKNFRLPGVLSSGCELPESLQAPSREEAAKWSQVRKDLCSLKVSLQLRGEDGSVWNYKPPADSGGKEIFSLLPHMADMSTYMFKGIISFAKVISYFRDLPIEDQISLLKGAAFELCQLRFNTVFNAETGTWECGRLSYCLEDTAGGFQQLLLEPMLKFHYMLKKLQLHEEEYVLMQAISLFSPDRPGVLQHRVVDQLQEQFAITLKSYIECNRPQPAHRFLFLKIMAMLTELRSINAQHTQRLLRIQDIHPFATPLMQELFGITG
Protocol: PXR Assay: GAL4PXR/GAL4 Response Element Reporter Assays in HuH7 Cells:
Human liver HuH7 cells are co-transfected using Fugene. The reporter plasmid, containing five Gal4 binding site and major late promoter of adenovirus upstream of the luciferase reporter cDNA, is transfected with a plasmid constitutively expressing a hybrid receptor consistent of GAL4 DNA binding domain and human SXR ligand binding domain using viral SV40 early promoter. Cells are transfected with 10 μg of total DNA/10^6 cells in T225 cm^2 flasks in DMEM:F12 (3:1) media with 10% charcoal-stripped Fetal Bovine Serum (FBS). After an overnight incubation, transfected cells are trypsinized, plated in 96 well dishes in DMEM:F12 (3:1) media with 10% charcoal-stripped FBS, incubated for 4 h and then exposed to 0.8 nM to 50 μM of test compounds in half log dilutions. After 24 h of incubations with compounds, cells are lysed and luciferase activity is determined Data is fit to a 4 parameter-fit logistics to determine EC50 values. The % efficacy is determined versus maximum stimulation obtained with rifampicin.

PPARδ receptor = molecular target: T2, PPARδ receptor (Homo sapiens, UniProt Q03181); assay: Binding and cotransfection studies, PPARδ ("binding assay")
T2 sequence (Q03181 1-441): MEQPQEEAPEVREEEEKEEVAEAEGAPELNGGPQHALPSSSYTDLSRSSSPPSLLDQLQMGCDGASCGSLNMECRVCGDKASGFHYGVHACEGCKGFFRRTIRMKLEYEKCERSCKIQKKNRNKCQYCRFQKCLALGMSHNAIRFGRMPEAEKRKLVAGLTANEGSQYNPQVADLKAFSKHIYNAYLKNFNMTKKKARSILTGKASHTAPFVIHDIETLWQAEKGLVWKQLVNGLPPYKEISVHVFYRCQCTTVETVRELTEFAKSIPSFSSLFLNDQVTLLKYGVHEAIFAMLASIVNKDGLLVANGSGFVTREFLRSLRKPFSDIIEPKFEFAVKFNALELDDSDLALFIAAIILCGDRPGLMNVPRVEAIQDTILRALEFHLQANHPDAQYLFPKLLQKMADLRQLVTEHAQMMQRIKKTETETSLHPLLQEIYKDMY
Protocol: (§1) DNA-dependent binding (ABCD binding) is carried out using SPA technology with PPAR receptors. Tritium-labeled PPARCX agonists are used as radioligands for generating displacement curves and IC50 values with compounds of the invention. Cotransfection assays are carried out in CV-1 cells. The reporter plasmid contains an acylCoA oxidase (AOX) PPRE and TK promoter upstream of the luciferase reporter cDNA. Appropriate PPARs are constitutively expressed using plasmids containing the CMV promoter. For PPARα, interference by endogenous PPARγ in CV-1 cells is an issue. In order to eliminate such interference, a GAL4 chimeric system is used in which the DNA binding domain of the transfected PPAR is replaced by that of GAL4, and the GAL4 response element is utilized in place of the AOX PPRE. Cotransfection efficacy is determined relative to PPARα agonist reference molecules. Efficacies are determined by computer fit to a concentration-response curve, or in some cases at a single high concentration of agonist (10 μM).
(§2) These studies are carried out to evaluate the ability of compounds of the invention to bind to and/or activate various nuclear transcription factors, particularly huPPARα (“hu” indicates “human”). These studies provide in vitro data concerning efficacy and selectivity of compounds of the invention. Furthermore, binding and cotransfection data for compounds of the invention are compared with corresponding data for marketed compounds that act on huPPARα.

PPARα receptor = molecular target: T3, PPARα receptor (Homo sapiens, UniProt Q07869); assay: Binding and cotransfection studies, PPARα ("binding assay")
T3 sequence (Q07869 174-468 limits assumed): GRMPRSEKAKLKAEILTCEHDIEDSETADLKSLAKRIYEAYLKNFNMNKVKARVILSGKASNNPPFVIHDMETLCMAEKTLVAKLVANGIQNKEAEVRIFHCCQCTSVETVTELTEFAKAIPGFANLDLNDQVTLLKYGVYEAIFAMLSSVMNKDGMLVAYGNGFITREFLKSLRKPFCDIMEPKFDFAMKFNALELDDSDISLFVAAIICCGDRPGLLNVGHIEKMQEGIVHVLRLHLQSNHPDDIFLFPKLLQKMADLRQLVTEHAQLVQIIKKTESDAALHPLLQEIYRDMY
Protocol: as §1, §2

[2] = molecular target: T4, Pregnane X Receptor (PXR) (Homo sapiens, UniProt O75469); details: reported in background section; cited from earlier work
T4 sequence (O75469 1-434): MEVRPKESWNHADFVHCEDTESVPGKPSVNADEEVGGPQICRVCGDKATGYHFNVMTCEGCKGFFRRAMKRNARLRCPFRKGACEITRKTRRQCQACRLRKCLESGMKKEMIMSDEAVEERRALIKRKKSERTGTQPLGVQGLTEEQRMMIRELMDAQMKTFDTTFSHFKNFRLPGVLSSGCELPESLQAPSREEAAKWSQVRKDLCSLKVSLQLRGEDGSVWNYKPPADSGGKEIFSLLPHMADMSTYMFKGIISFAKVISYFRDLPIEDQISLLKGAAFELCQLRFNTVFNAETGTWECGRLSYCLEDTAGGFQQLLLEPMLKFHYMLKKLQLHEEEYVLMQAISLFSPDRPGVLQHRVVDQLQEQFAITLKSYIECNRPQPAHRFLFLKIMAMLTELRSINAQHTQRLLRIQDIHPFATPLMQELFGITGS

Compound	PXR (% efficacy versus max stimulation with Rifampicin) [1] [%]	EC50 (PPARδ receptor) [nM]	EC50 (PPARα receptor) [nM]	PXR activation [2]
Cc1cc(OCc2nn(-c3ccc(C(F)(F)F)cc3)c(=O)n2C(C)C)ccc1OC(C)(C)C(=O)O [Example 1, 2-{4-[4-Isopropyl-5-oxo-1-(4-trifluoromethyl-phenyl)-4,5-dihydro-1H-[1,2,4]triazol-3-ylmethoxy]-2-methyl-phenoxy}-2-methyl-propionic acid]	32.4	63.4	309	–
Cc1c(C)c2c(c(C)c1O)CCC(C)(COc1ccc(CC3SC(=O)NC3=O)cc1)O2 (stereo not shown) [troglitazone]	–	–	–	activated the Pregnane X Receptor (PXR)

Second part, led by results:

PXR (% efficacy versus max stimulation with Rifampicin) [1] [%]	EC50 (PPARδ receptor) [nM]	EC50 (PPARα receptor) [nM]	Compound	PXR activation [2]
52.8	297	256	COCCn1c(COc2ccc(OC(C)(C)C(=O)O)c(C)c2)nn(-c2ccc(C(F)(F)F)cc2)c1=O [Example 2, 2-{4-[4-(2-Methoxy-ethyl)-5-oxo-1-(4-trifluoromethyl-phenyl)-4,5-dihydro-1H-[1,2,4]triazol-3-ylmethoxy]-2-methyl-phenoxy}-2-methyl-propionic acid]	–
57.8	14	19.5	Cc1cc(OCc2nn(-c3ccc(C(F)(F)F)cc3)c(=O)n2-c2ccccc2F)ccc1OC(C)(C)C(=O)O [Example 13]	–
13.5	46.4	872	CC(C)(Oc1ccc(OC(CCCC(F)(F)F)c2nn(-c3ccc(C(F)(F)F)cc3)c(=O)n2-c2c(F)cccc2F)cc1)C(=O)O (racemic) [Example 57, 2-(4-{1-[4-(2,6-Difluoro-phenyl)-5-oxo-1-(4-trifluoromethyl-phenyl)-4,5-dihydro-1H-[1,2,4]triazol-3-yl]-5,5,5-trifluoro-pentyloxy}-phenoxy)-2-methyl-propionic acid]	–
